Activity calls are given as the source filed them. The rule behind the calls is not given here.

In the experiment the target is Ubiquitin-conjugating enzyme E2 N (Homo sapiens) (UniProt P61088). The experiment in a line: NMR detection of UBE2N ligand binding – biophysical, purified protein (AID 1552). As to conditions: NMR binding to purified UBE2N.
Ubiquitin-conjugating enzyme E2 N (Homo sapiens), sequence (P61088 whole entry, looked up): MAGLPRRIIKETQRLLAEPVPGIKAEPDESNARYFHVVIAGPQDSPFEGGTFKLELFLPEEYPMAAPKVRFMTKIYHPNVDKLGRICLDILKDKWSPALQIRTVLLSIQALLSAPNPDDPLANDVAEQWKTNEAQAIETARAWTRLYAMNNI
As usually defined, the Kd is the constant that tells how readily two partners part at equilibrium. As for `Nc1nncn1C(=O)c1ccccc1Cl`, the Kd was > 4 mM (inactive).
The figure for `CC(=O)O[C@@H]1CC2C(C)(C)[C@@H](O)CC[C@]2(C)C2CC[C@@]3(C)[C@H](c4ccoc4)OC(=O)[C@H]4O[C@]43[C@@]21C` (stereo partly drawn) is > 4 mM (inactive).
The same measure for `O=C(O)c1ccc(NC(=O)c2cccs2)cc1`: > 4 mM (inactive); for `Nc1nncn1C(=O)c1c(Cl)cccc1Cl`: > 4 mM (inactive).
The same measure for `CN1CCN(C(=O)C2CCCNC2)CC1` (stereo not drawn): > 4 mM (inactive); for `COc1cccc(C(=O)Nc2c(C)n[nH]c2C)c1`: > 4 mM (inactive).
For `FC(F)(F)c1nnc2ccc(N3CCOCC3)nn12`, the Kd was > 4 mM (inactive).
Regarding `c1ccc(-n2cnnc2)nc1`, the Kd was > 4 mM (inactive).
The figure for `O=C(CSc1ncccn1)NCc1ccco1` is > 4 mM (inactive).
With `O=C(Nc1ccc(F)cc1F)c1ccco1`, the Kd was > 4 mM (inactive).
The same measure for `Cc1cc(=O)n(C(N)=S)[nH]1`: > 4 mM (inactive).
The figure for `Nc1cccc2nsnc12` is > 4 mM (inactive); for `CCOc1nc(C)ccc1-c1noc(-c2ccco2)n1` it is > 4 mM (inactive); for `COC(=O)c1cc(C)on1` it is > 4 mM (inactive).
The same measure for `CCCNC(CC(=O)Nc1cccnc1)C(=O)O` (stereo not drawn): > 4 mM (inactive); for `CC(=O)O[C@@H]1CC2C(C)(C)C=CC(=O)[C@]2(C)C2CC[C@@]3(C)[C@H](c4ccoc4)OC(=O)C4OC43[C@@]21C` (stereo partly drawn): > 4 mM (inactive).
On to `CC(C)(O)P(C)(=O)c1ccccc1` (stereo not drawn), for which the Kd was > 4 mM (inactive).
The figure for `Cn1ncc(N2CCOCC2)c(Cl)c1=O` is > 4 mM (inactive).
For the compound `Cn1c(=O)c2[nH]cnc2n(-c2ccccc2)c1=O`, the Kd is > 4 mM (inactive).
In the case of `Cc1nc2ccccc2c(=O)n1/N=C/c1ccncc1`, the Kd is > 4 mM (inactive).
The same measure for `CN=C(C)c1c(O)n(C)c(=O)n(C)c1=O`: > 4 mM (inactive); for `O=C(NC1CCS(=O)(=O)C1)C1CCCCC1` (stereo not drawn): > 4 mM (inactive).
The same measure for `O=c1[nH]cc(NCc2ccccc2)c(=O)[nH]1`: > 4 mM (inactive); for `COc1c(-c2coc3cc4c(cc3c2=O)CC(O)C(C)(C)O4)ccc2c1C=CC(C)(C)O2` (stereo not drawn): > 4 mM (inactive).
The figure for `CC(=O)Nc1ccc(NC(=O)c2ccnn2C)cc1` is > 4 mM (inactive).
With `COc1cc(C(=S)N2CCOCC2)ccc1O`, the Kd was > 4 mM (inactive).
The figure for `O=C(O)C(CO)c1ccccc1` (stereo not drawn) is > 4 mM (inactive); for `Cc1nnc(SCC(N)=O)c2ccccc12` it is > 4 mM (inactive); for `Oc1ccc2nonc2c1` it is > 4 mM (inactive).
As for `O=C(NCO)c1ccccc1Cl`, the Kd was > 4 mM (inactive).
`CC(=O)Nc1ccc2c(c1)CCC2=O`: the Kd is > 4 mM (inactive).
The figure for `OC1CSc2ncnn2C1` (stereo not drawn) is > 4 mM (inactive).
The figure for `COc1cccc(=O)c2c(C)n(C)c(C)c12` is > 4 mM (inactive); for `N=c1c2c3c(sc2ncn1N)CCCC3` it is > 4 mM (inactive); for `O=C(Nn1cnnc1)c1csc2ccccc12` it is > 4 mM (inactive).
With `O=C(Nc1ccc(N2CCOCC2)cc1)C1CC1`, the Kd was > 4 mM (inactive).
The same measure for `CC(=O)N/N=C(\C)c1cccc(N)c1`: > 4 mM (inactive); for `CCN1CC2(C)CC[C@H](OC)[C@]34C2[C@H](O)C2(OCO[C@@]25C[C@H](OC)[C@H]2C[C@]3(O)C5[C@H]2O)C14`: > 4 mM (inactive).
The same measure for `OCCOc1ccc(C2=NCCO2)cc1`: > 4 mM (inactive); for `O=S1(=O)CCC(NCc2ccccc2)C1` (stereo not drawn): > 4 mM (inactive).
Regarding `Cc1ccccc1NC(=O)N1CCOCC1`, the Kd was > 4 mM (inactive).
The same measure for `Nc1ccc(-n2cncn2)cc1`: > 4 mM (inactive); for `CC(=O)Nc1ccc(S(=O)(=O)Nc2cc(C)on2)cc1`: > 4 mM (inactive); for `COc1cc(C(=O)O[C@H]2CC[C@@]3(C)[C@@H]4CC[C@H]5[C@]6(O)C[C@H](O)[C@@]7(O)[C@@H](CN8C[C@@H](C)CC[C@H]8[C@@]7(C)O)[C@]6(O)C[C@@]53OC24O)cc(OC)c1OC`: > 4 mM (inactive).
The figure for `Cc1ccccc1NC(=O)c1ccccc1` is > 4 mM (inactive); for `NC(=O)Cn1nnc(-c2ccc(C(F)(F)F)cc2)n1` it is > 4 mM (inactive).
The figure for `Cc1ccc(SCCN2C(=O)NC(C)(C)C2=O)cc1` is > 4 mM (inactive); for `OC[C@H]1O[C@@H](Oc2ccc(O)cc2)[C@H](O)[C@@H](O)[C@@H]1O` it is > 4 mM (inactive).
With `O=C1CCNc2cc3ccccc3cc21`, the Kd is > 4 mM (inactive).
For the compound `CN(c1ccc(C(=O)N2CCCCC2)cc1)S(C)(=O)=O`, the Kd is > 4 mM (inactive).
The same measure for `CCOc1cc(S(=O)(=O)n2nc(C)cc2C)ccc1F`: > 4 mM (inactive).
With `COc1c2occc2cc2ccc(=O)oc12`, the Kd is > 4 mM (inactive).
The figure for `CC(=O)Nc1cnn(-c2ccccc2)c(=O)c1Cl` is > 4 mM (inactive).
The same measure for `NC1=NC(=O)/C(=C/c2ccc(O)c(Cl)c2)S1`: > 4 mM (inactive); for `Cc1nn(C)c2sc(CO)cc12`: > 4 mM (inactive); for `Nc1nc(CSc2ncn(-c3ccccc3)n2)cs1`: > 4 mM (inactive).
The same measure for `COc1ccc(C(=O)CC(=O)O)c2c1C=CC(C)(C)O2`: > 4 mM (inactive); for `Cc1nn2c(-c3ccco3)nnc2c2ccccc12`: > 4 mM (inactive); for `COC(=O)CSc1n[nH]c(N)n1`: > 4 mM (inactive).
In the case of `COc1ccccc1NC(=O)c1snnc1C`, the Kd is > 4 mM (inactive).
As for `Nc1nc(-c2ccccc2)ns1`, the Kd is > 4 mM (inactive).
As for `Nc1nc(-c2ccc(Cl)cc2)nn1C(=O)c1cccnc1`, the Kd was > 4 mM (inactive).
The same measure for `OCC1CCN(Cc2ccccc2)CC1`: > 4 mM (inactive).
For `O=C(O)CCNc1n[nH]c(=O)[nH]c1=O`, the Kd is > 4 mM (inactive).
In the case of `Cc1noc(-c2ccccc2)c1C(=O)O`, the Kd is > 4 mM (inactive).
As for `c1ccc(Cc2nn3c(-c4ccncc4)nnc3s2)cc1`, the Kd was > 4 mM (inactive).
Take `O=C1NC(=S)NC(=O)C1=Cc1ccco1`: the Kd was > 4 mM (inactive).
Consider `CC(=O)c1c(C)nc(-c2ccc(F)cc2)n1O`, for which the Kd was > 4 mM (inactive).
The figure for `Cc1nn2c3ccccc3nc2n(Cc2ccccc2)c1=O` is > 4 mM (inactive); for `COc1cc(O)c(C(=O)c2ccccc2)cc1O` it is > 4 mM (inactive).
Consider `Clc1ccccc1OCCn1ccnc1`, for which the Kd was > 4 mM (inactive).
The same measure for `Cc1cccc(N2C(=O)CC(=O)NC2=O)c1`: > 4 mM (inactive); for `COC(=O)C(O)c1ccccc1` (stereo not drawn): > 4 mM (inactive).
With `COc1cc(OC)c2c(c1Cl)OC1(C2=O)C(O)=CC(=O)CC1C` (stereo not drawn), the Kd was > 4 mM (inactive).
Consider `CC1(C)Cc2cccc(CO)c2O1`, for which the Kd was > 4 mM (inactive).
The figure for `Cn1nccc1N` is > 4 mM (inactive); for `Nc1ccccc1-c1nc2ccccc2[nH]1` it is > 4 mM (inactive).
For `Cc1occc1C(=O)Nc1sccc1C(N)=O`, the Kd was > 4 mM (inactive).
Take `NCc1ccc2occc2c1`: the Kd is > 4 mM (inactive).
The same measure for `O=C1CC(=O)N(Cc2ccco2)C(=S)N1`: > 4 mM (inactive).
For `COc1cc2c(cc1OC)[C@@H]1C(=O)c3ccc(O)c(CC=C(C)C)c3O[C@@H]1CO2`, the Kd is > 4 mM (inactive).
As to `Cc1cc(NC(=O)c2ccc3c(c2)OCO3)no1`, the Kd was > 4 mM (inactive).
On to `CCN1C[C@@]2(COC)C3[C@@H](OC)[C@H]4[C@@H]1[C@]3(C(OC)C[C@H]2O)C1C[C@@]2(O)[C@H](OC(=O)c3ccccc3)C1[C@]4(OC(C)=O)[C@@H](O)[C@@H]2OC` (stereo partly drawn), for which the Kd is > 4 mM (inactive).
On to `CN1C2C[C@H](OC(=O)[C@H](CO)c3ccccc3)C[C@H]1[C@@H](O)C2`, for which the Kd is > 4 mM (inactive).
The same measure for `Cn1ccnc1C(O)c1ccccc1` (stereo not drawn): > 4 mM (inactive); for `O=C(O)CCCNC(=O)c1ccccc1C(=O)O`: > 4 mM (inactive).
With `CN(C)C(=O)CSc1cccc2cccnc12`, the Kd is > 4 mM (inactive).
As to `C=CC(C1=CC(=O)C(OC)=CC1=O)c1ccccc1` (stereo not drawn), the Kd is > 4 mM (inactive).
The figure for `O=C(NC(=S)NCCO)c1ccccc1` is > 4 mM (inactive).
On to `Cc1ccc(SCc2nc(-c3ccncc3)no2)cc1`, for which the Kd is > 4 mM (inactive).
On to `Cc1n[nH]c(C)c1CC(=O)O`, for which the Kd is > 4 mM (inactive).
The figure for `COCc1c(CN)cnc(C)c1N` is > 4 mM (inactive); for `CC(C)Nc1nc2n(c(=O)n1)CCN2C(C)C` it is > 4 mM (inactive); for `COc1ccc(Cc2nnc3c4cnn(C)c4ncn23)cc1` it is > 4 mM (inactive).
The figure for `S=C(c1cccnc1)N1CCOCC1` is > 4 mM (inactive); for `C[C@@H]1[C@H]2[C@H](O[C@@H]3O[C@H](CO)[C@@H](O)[C@H](O)[C@H]3O)OC=C(C(=O)O)[C@H]2C[C@@H]1O` it is > 4 mM (inactive); for `COc1cccc(NC(=O)c2cnn(C)c2Cl)c1` it is > 4 mM (inactive).
As for `CCCCCC/C=C\CCCCCCCc1cccc(O)c1C(=O)O`, the Kd is > 4 mM (inactive).
The figure for `OCc1cccs1` is > 4 mM (inactive); for `NCCc1ccc(S(N)(=O)=O)cc1` it is > 4 mM (inactive).
For the compound `Nc1ccccc1OC(F)(F)F`, the Kd is > 4 mM (inactive).
The same measure for `O=C(Nc1cccc(C(F)(F)F)c1)c1cccnc1`: > 4 mM (inactive); for `Nc1[nH]c(=S)ncc1S(=O)(=O)c1ccccc1`: > 4 mM (inactive).

For the origin of these results see PubChem BioAssay AID1552 (Sanford-Burnham Center for Chemical Genomics, 2009).
